Measured values reported in publication PMC9795464 (JACS Au, 2022).

Experiments:
[1] = tested on: inflammation, fibrosis and FXR target genes in liver; assay: Liver mRNA levels by qPCR in BDL mice; type: in vivo
[2] = biological target: T1, FXR (Homo sapiens, UniProt Q96RI1); assay: AlphaScreen corepressor NCoR-2 recruitment assay; type: biochemical; conditions: Figure 1I
T1 sequence (Q96RI1 243-472 isoform Q96RI1-2): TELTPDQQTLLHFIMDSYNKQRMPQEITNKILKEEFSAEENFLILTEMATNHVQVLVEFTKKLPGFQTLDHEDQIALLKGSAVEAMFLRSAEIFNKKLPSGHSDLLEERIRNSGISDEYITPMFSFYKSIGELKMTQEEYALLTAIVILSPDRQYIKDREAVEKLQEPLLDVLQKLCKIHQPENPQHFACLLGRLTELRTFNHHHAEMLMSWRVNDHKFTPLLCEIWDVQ

[3] = tested on: BDL-induced liver injury in mice; assay: Bile duct ligation; type: in vivo
[4] = 3 mg/kg p.o. once daily day 7 to 14 after BDL

binding affinity between FXR and NCoR2 [2]: decreased the binding affinity
SMILES: CC[C@H]1[C@@H](O)[C@@H]2[C@H](CC[C@]3(C)[C@@H]([C@H](C)CCC(=O)O)CC[C@@H]23)[C@@]2(C)CC[C@@H](O)C[C@@H]12 [OCA, Obeticholic acid]
liver mRNA expression of inflammatory biomarkers IL-6, IL-1β, iNOS, COX2 [1]: significantly decreased
collagen deposition (Sirius red) compared to the vehicle group [3, 4]: smaller amount
inflammatory infiltrates (H&E) compared to the vehicle group [3, 4]: lower level
BDL-induced increase in total bilirubin level in the serum ([3]; once daily day 7 to 14 after BDL): reversed
